Reference: article PMC11371738, “Development of an ic-CLEIA for precise detection of 3-CQA in herbs and patent medicines: ensuring quality control and therapeutic efficacy” (Frontiers in Nutrition, 2024)
≈ marks a conversion by molar mass, not a printed value.

What was measured:
anti-3-CQA mAb [1] = assay: mAb-based indirect competitive chemiluminescence enzyme immunoassay (ic-CLEIA); assay type: binding, mouse; conditions: for CR (cross-reactivity) = IC50 3-CQA / IC50 analogue x 100%: ic-CLEIA; for IC50: 3-CQA-OVA coating 2 μg/mL, mAb 1:8000, deionized water pH 7.0
Experimental: To establish the optimal conditions for the ic-CLEIA, a checkerboard titration was employed. The protocols of the ic-CLEIA were performed as previously ([20]). A gradient concentration of 3-CQA-OVA (0.125, 0.5, 2.0, and 8.0 μg/mL; 100 μL/well) was diluted in PBS and added to a 96-well white microliter plate (Costar Inc., Cambridge, MA, United States), followed by incubation at 4°C overnight. After washing each well three times with PBST (PBS solution containing 0.05% Tween-20, pH 7.4), the plates were blocked with 5% skimmed milk powder (SMP) (Sigma, St Louis, MO, United States) in PBS (200 μL/well) at 37°C for 2 h. Subsequently, different concentrations of mAb (1:2000, 1:4000, 1:8000, 1:16000, 1:32000, 1:64000, and 1:128000; 100 μL/well) were added to different wells, followed by incubation at 4°C for 50 min. For ic-CLEIA standard curve, 3-CQA standard solutions in PBS (0.01, 0.025, 0.05, 0.1, 0.25, 0.5, 1, 2.5, 5, 10, 25, 50, and 100 ng/mL; 50 μL) and the diluted antibody in PBS (50 μL) were added to each well and incubated at 4°C for 50 min. After a washing step, goat anti-mouse IgG-horse radish peroxidase (HRP) (SinoBiological, Beijing, China) dissolved in PBS supplemented with 2% SMP was added at a 1:5000 dilution (100 μL/well), and the plates were incubated at 37°C for 50 min. Afterward, 100 μL of chemiluminescent substrate solution (Heliosense Biotechnology, Xiamen, China) was pipetted into each well, and the emitted photons were immediately read at 595 nm using a Tecan Infinite F200 reader (Mannedorf, Switzerland). To investigate the effects of different factors on the overall reaction system, different pH (6.5, 7.0, 7.4, and 8.0), methanol aqueous solution (5, 10, 30, and 50%; v/v), Tween-20 (0.01, 0.02, 0.04, 0.06, and 0.08%, v/v), sodium chloride solution (0.1 M, 0.2 M, and 0.4 M) were prepared and tested.
All incubation steps were performed in the dark throughout the procedure. The competitive inhibition curves for 3-CQA were plotted using GraphPad Prism 8.0 (GraphPad Inc., San Diego, CA).
To evaluate CR, the structural analogs of 3-CQA including 4-CQA, 5-CQA, 3,5-dicaffeoylquinic acid, 4,5-dicaffeoylquinic acid, 3,4-dicaffeoylquinic acid, and tea polyphenols (DESITE Biotech, Chengdu, China) were used in place of 3-CQA within the ic-CLEIA assay. The respective CR values of these analogs were determined using the following equation: […]

anti-3-CQA mAb [2] = assay: indirect competitive ELISA (ic-ELISA); assay type: binding, mouse; conditions: same conditions as ic-CLEIA
Experimental: The protocols of ic-ELISA are similar to the ic-CLEIA, 3-CQA-OVA antigen, anti-3-CQA mAb, and goat anti-mouse IgG-HRP were successively incubated under optimized conditions. 3-CQA standard solutions in PBS (1, 2, 4, 8, 16, 32, 64, 128, 256, and 512 ng/mL; 50 μL) and the diluted antibody in PBS (50 μL) were added to each well and incubated at 4°C for 50 min. Subsequent to four washes, 3, 3′, 5, 5′-tetramethylbenzidine (TMB, 100 μL/well) solution was added and incubated at 37°C for 10 min. The reaction was then terminated by adding 2 M H2SO4 (50 μL/well), and the absorbance was measured at the wavelength of 450 nm (OD450). The competitive inhibition curve was plotted using Lg[10*C3-CQA (ng/mL)] as the abscissa and B/B0 (B0 is the OD450 value without standard, and B is the OD450 value with standard present) as the ordinate.

Row | CR (cross-reactivity) = IC50 3-CQA / IC50 analogue x 100% (anti-3-CQA mAb [1]) | IC50 (anti-3-CQA mAb [1]; optimized conditions) | IC50 (anti-3-CQA mAb [2]) | IC20 (lower end of linear range) (anti-3-CQA mAb [1]; optimized conditions) | IC80 (upper end of linear range) (anti-3-CQA mAb [1]; optimized conditions) | calibration / linear / detection range (IC20-IC80) (anti-3-CQA mAb [1]; optimized conditions) | limit of detection (LOD, IC10) (anti-3-CQA mAb [1]; optimized conditions) | Structure (SMILES) | LOD (anti-3-CQA mAb [2]) | linear / detection range (anti-3-CQA mAb [2])
1 | 10.71% | 0.02774 µg/mL | – | – | – | – | – | O=C(/C=C/c1ccc(O)c(O)c1)OC1CC(O)(C(=O)O)CC(OC(=O)/C=C/c2ccc(O)c(O)c2)C1O (stereo not shown) [3,5-dicaffeoylquinic acid] | – | –
2 | 0.62% | 0.48062 µg/mL | – | – | – | – | – | O=C(/C=C/c1ccc(O)c(O)c1)OC1C(O)CC(O)(C(=O)O)CC1O (stereo not shown) [4-CQA, 4-caffeoylquinic acid] | – | –
3 | 0.31% | 0.97156 µg/mL | – | – | – | – | – | O=C(/C=C/c1ccc(O)c(O)c1)OC1CC(O)(C(=O)O)CC(O)C1OC(=O)/C=C/c1ccc(O)c(O)c1 (stereo not shown) [4,5-dicaffeoylquinic acid] | – | –
4 | 100.00% | 0.00297 µg/mL | 0.03606 µg/mL (≈ 0.102 µM) | 0.00064 µg/mL | 0.01375 µg/mL | 0.00064 to 0.01375 µg/mL | 0.00039 µg/mL | O=C(C=Cc1ccc(O)c(O)c1)OC1CC(O)(C(=O)O)CC(O)C1O (stereo not shown) [3-CQA, 3-caffeoylquinic acid] | 6.71 ng/mL | 10.21 to 127.36 ng/mL
5 | 2.10% | 0.14173 µg/mL | – | – | – | – | – | O=C(/C=C/c1ccc(O)c(O)c1)OC1CC(O)(C(=O)O)CC(O)C1OC(=O)/C=C/c1ccc(O)c(O)c1 (stereo not shown) [3,4-dicaffeoylquinic acid] | – | –
6 | 1.81% | 0.16444 µg/mL | – | – | – | – | – | O=C(/C=C/c1ccc(O)c(O)c1)OC1CC(O)(C(=O)O)CC(O)C1O (stereo not shown) [5-CQA, 5-caffeoylquinic acid] | – | –
